Experimental data: US5288743A, “Indole carboxylate derivatives which inhibit leukotriene biosynthesis” (Abbott Laboratories, priority 1992, dated 1994)

What was measured:
[1] = test system: LTB4 biosynthesis in human PMNL; test: Inhibition of calcium ionophore A23187-induced LTB4 biosynthesis in human polymorphonuclear leukocytes (PMNL); format: cell-based; conditions: human PMNL (5×10^6 cells/250 μL), 15 min preincubation at 37° C., A23187 8.3 μM, 10 min, LTB4 by HPLC
Method: Inhibition of leukotriene biosynthesis was evaluated in assays, involving calcium ionophore-induced LTB4 biosynthesis expressed by human polymorphonuclear leukocytes (PMNL) or human whole blood. Human PMNL were isolated from heparinized (20 USP units/mL) venous blood using Ficoll-Hypaque Mono-Poly Resolving Medium. Human PMNL suspensions (5×10^6 cells/250 μL) were preincubated with test compounds or vehicle for 15 min at 37° C. followed by calcium ionophore A23187 challenge (final concentration of 8.3 μM) and the reaction terminated after 10 min by adding two volumes of methanol containing prostaglandin B2 as an internal recovery standard. The methanol extracts were analyzed for LTB4 content by HPLC.

[2] = test system: LTB4 biosynthesis in human whole blood; test: Inhibition of calcium ionophore A23187-induced LTB4 biosynthesis in human whole blood; format: cell-based; conditions: 0.5 h; human heparinized whole blood, A23187 50 μM, 30 minutes at 37° C., LTB4 by radioimmunoassay
Method: The assay using human heparinized whole blood was incubated for 30 minutes at 37° C. after adding 50 μM of ionophore A23187. The plasma layer was obtained by centrifugation and deproteinized by the addition of four volumes of methanol. The methanol extract was analyzed for LTB4 using a commercially available radioimmunoassay.

[3] = test system: leukotriene biosynthesis; test: Inhibition of leukotriene biosynthesis in vivo, rat peritoneal anaphylaxis model, oral administration; conditions: for percent inhibition of leukotriene biosynthesis: oral dose of 30 μmol/kg, gavage one hour prior to antigen challenge
Method: Inhibition of the biosynthesis of leukotrienes in vivo after oral administration of compound was determined using a rat peritoneal anaphylaxis model in a similar manner as that described by Young and coworkers (Young, P. R.; Dyer, R. D.; Carter, G. W. Fed. Proc., Fed. Am. Soc. Exp. Biol. 1985, 44, 1185). In this model rats were injected intraperitoneally (ip) with rabbit antibody to bovine serum albumin (BSA) and three hours later injected ip with BSA to induce an antigen-antibody response. Rats were sacrificed 15 minutes after this challenge and the peritoneal fluids were collected and analyzed for leukotriene levels. Test compounds were administered by gavage one hour prior to the antigen challenge. Percent inhibition values were determined by comparing the treatment group to the mean of the control group. […] Compounds 5, 8, and 9 inhibit>50% leukotriene biosynthesis with an oral dose of 30 μmol/kg.

| SMILES | IC50 [1] [nM] | IC50 [2] [nM] | ED50 ([3]; 1 h, po (gavage) one hour prior to antigen challenge, read-out: inhibits leukotriene biosynthesis, ED50) [mg/kg] | percent inhibition of leukotriene biosynthesis [3] [%] |
| --- | --- | --- | --- | --- |
| CC(C)(C)Sc1c(CC(C)(C)C(=O)O)n(Cc2ccc(Cl)cc2)c2ccc(OCc3cccnc3)cc12 [Example 1, 3-[1-(4-chlorobenzyl)-3-(1,1-dimethylethylthio)-5-(pyrid-3-ylmethoxy)-indol-2-yl]-2,2-dimethylpropionic acid] | 17 | 1090 |  |  |
| CC(C)(C)Sc1c(CC(C)(C)C(=O)O)n(Cc2ccc(Cl)cc2)c2ccc(OCc3ccncc3)cc12 [Example 2, 3-[1-(4-chlorobenzyl)-3-(1,1-dimethylethylthio)-5-(pyrid-4-ylmethoxy)-indol-2-yl]-2,2-dimethylpropionic acid] | < 100 | 840 |  |  |
| CC(C)(C)Sc1c(CC(C)(C)C(=O)O)n(Cc2ccc(Cl)cc2)c2ccc(Oc3ccccn3)cc12 [Example 5, 3-[1-(4-chlorobenzyl)-3-(1,1-dimethylethylthio)-5-(pyrid-2-yloxy)indol-2-yl]-2,2-dimethylpropionic acid] | 15 | 2470 |  | > 50 |
| CC(C)(C)Sc1c(CC(C)(C)C(=O)O)n(Cc2ccc(Cl)cc2)c2ccc(OCc3cccc(Cl)n3)cc12 [Example 8, 3-[1-(4-chlorobenzyl)-5-(6-chloropyrid-2-ylmethoxy)-3-(1,1-dimethylethylthio)indol-2-yl]-2,2-dimethylpropionic acid] | 17 | 110 |  | > 50 |
| CC(C)(C)Sc1c(CC(C)(C)C(=O)O)n(Cc2ccc(Cl)cc2)c2ccc(OCc3cscn3)cc12 [Example 9, 3-[1-(4-chlorobenzyl)-3-(1,1-dimethylethylthio)-5-(thiazol-4-ylmethoxy)indol-2-yl]-2,2-dimethylpropionic acid] | 4.4 | 40 |  | > 50 |
| CC(C)(C)Sc1c(CC(C)(C)C(=O)O)n(Cc2ccc(Cl)cc2)c2ccc(OCc3cccs3)cc12 [Example 10, 3-[1-(4-chlorobenzyl)-3-(1,1-dimethylethylthio)-5-(thien-2-ylmethoxy)indol-2-yl]-2,2-dimethylpropionic acid] | 7 | 1400 |  |  |

More lines, main results first:

| IC50 [1] [nM] | IC50 [2] [nM] | SMILES | ED50 ([3]; 1 h, po (gavage) one hour prior to antigen challenge, read-out: inhibits leukotriene biosynthesis, ED50) [mg/kg] | percent inhibition of leukotriene biosynthesis [3] [%] |
| --- | --- | --- | --- | --- |
| < 50 | 50 | CC(C)(C)Sc1c(CC(C)(C)C(=O)O)n(Cc2ccc(Cl)cc2)c2ccc(OCc3ccccn3)cc12 [Example 3, 3-[1-(4-chlorobenzyl)-3-(1,1-dimethylethylthio)-5-(pyrid-2-ylmethoxy)indol-2-yl]-2,2-dimethylpropionic acid] | 0.1 |  |
| 12 | 4420 | CC(C)(C)Sc1c(CC(C)(C)C(=O)O)n(Cc2ccc(Cl)cc2)c2ccc(OCc3ccc4ccccc4c3)cc12 [Example 4, 3-[1-(4-chlorobenzyl)-3-(1,1-dimethylethylthio)-5-(napth-2-ylmethoxy)indol-2-yl]-2,2-dimethylpropionic acid] |  |  |
| < 800 | 3200 | CC(C)(C)Sc1c(CC(C)(C)C(=O)O)n(Cc2ccc(Cl)cc2)c2ccc(OCc3ccc(Cl)s3)cc12 [Example 6, 3-[1-(4-chlorobenzyl)-5-(5-chlorothien-2-ylmethoxy)-3-(1,1-dimethylethylthio)indol-2-yl]-2,2-dimethylpropionic acid] |  |  |
| 30 | 1600 | Cc1cc(C)nc(COc2ccc3c(c2)c(SC(C)(C)C)c(CC(C)(C)C(=O)O)n3Cc2ccc(Cl)cc2)n1 [Example 7, 3-[1-(4-chlorobenzyl)-3-(1,1-dimethylethylthio)-5-(4,6-dimethylpyrimid-2-ylmethoxy)indol-2-yl]-2,2-dimethylpropionic acid] |  |  |
